Laboratory results from patent US11034685B2, “Aminopyridine derivatives as TAM family kinase inhibitors” (SignalChem Lifesciences Corporation, priority 2013, dated 2021).

Tests used:
Type in all cases: biochemical
[1] = target: T1, Recombinant human Tyro3 (455-end) (Homo sapiens, UniProt Q06418); assay: Kinase enzymatic activity assay ([33P]-ATP phosphate transfer), Tyro3; details: inhibitory activity on Tyro3; class symbols
T1 construct: GST (N); made in house; host or cells: Sf9 insect cells (baculovirus)
T1 sequence (Q06418 455-890 limits assumed): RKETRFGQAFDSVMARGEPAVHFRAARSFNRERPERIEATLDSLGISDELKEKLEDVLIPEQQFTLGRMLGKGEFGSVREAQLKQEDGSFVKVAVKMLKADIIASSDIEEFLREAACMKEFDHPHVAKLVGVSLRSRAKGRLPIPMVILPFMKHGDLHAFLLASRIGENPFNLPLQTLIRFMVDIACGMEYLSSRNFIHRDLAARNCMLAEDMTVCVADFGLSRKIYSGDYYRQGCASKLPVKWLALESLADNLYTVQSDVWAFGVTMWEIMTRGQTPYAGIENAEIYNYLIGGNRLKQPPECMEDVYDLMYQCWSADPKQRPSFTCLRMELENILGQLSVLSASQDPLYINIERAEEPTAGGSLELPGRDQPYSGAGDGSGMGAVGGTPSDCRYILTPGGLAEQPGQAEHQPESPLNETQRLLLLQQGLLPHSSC
Method in brief: (§1)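 Kinases were N-terminal GST-tagged constructs expressed in Sf9 cells, with poly(Glu:Tyr 4:1) as substrate. Reactions ran in MOPS buffer pH 7.2 with MgCl2 and [33P]-ATP (250 μM cocktail stock) for 30 min at room temperature. Filter-bound radioactivity gave % inhibition, and IC50 was taken from serial dilutions.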

human Axl (473-end) = target: T2, human Axl (473-end) (Homo sapiens, UniProt P30530); assay: Kinase enzymatic activity assay ([33P]-ATP phosphate transfer), Axl; details: inhibitory activity on Axl; class symbols
T2 construct: GST (N); made in house; host or cells: Sf9 insect cells (baculovirus)
T2 sequence (P30530 473-894 limits assumed): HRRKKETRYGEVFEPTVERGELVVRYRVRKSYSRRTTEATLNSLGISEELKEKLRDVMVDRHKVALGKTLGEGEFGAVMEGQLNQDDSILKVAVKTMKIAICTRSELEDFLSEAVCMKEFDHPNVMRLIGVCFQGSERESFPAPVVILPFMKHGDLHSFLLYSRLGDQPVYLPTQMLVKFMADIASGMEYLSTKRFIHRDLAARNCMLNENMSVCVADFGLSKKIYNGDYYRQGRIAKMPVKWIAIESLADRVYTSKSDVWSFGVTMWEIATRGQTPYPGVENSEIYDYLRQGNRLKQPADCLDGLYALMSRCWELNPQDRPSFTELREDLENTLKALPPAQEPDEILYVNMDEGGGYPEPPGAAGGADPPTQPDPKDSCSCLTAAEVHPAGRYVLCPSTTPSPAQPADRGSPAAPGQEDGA
Method in brief: as §1

human Mer (578-872) = target: T3, human Mer (578-872) (Homo sapiens, UniProt Q12866); assay: Kinase enzymatic activity assay ([33P]-ATP phosphate transfer), Mer; details: inhibitory activity on Mer; class symbols
T3 construct: GST (N); made in house; host or cells: Sf9 insect cells (baculovirus)
T3 sequence (Q12866 578-872): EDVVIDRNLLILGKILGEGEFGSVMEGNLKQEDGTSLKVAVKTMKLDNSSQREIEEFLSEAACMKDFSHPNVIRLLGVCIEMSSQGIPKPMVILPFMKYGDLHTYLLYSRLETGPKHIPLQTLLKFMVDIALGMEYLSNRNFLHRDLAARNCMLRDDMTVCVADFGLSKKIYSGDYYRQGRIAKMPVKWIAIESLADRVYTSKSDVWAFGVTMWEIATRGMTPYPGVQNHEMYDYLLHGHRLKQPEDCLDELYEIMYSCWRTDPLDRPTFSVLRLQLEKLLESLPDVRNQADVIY
Method in brief: as §1

IC50 [1] [µM] | IC50 (human Axl (473-end)) [µM] | IC50 (human Mer (578-872)) [µM] | SMILES
1 to 10 | 1 to 10 | 1 to 10 | Nc1ncc(-c2cnn(C3CCOCC3)c2)cc1-c1ccc(-c2ccccc2)o1 [3-(5-phenylfuran-2-yl)-5-(1-(tetrahydro-2H-pyran-4-yl)-1H-pyrazol-4-yl)pyridin-2-amine]
< 0.5 | < 0.5 | 1 to 10 | Nc1ncc(-c2cnn(C3CCOCC3)c2)cc1-c1cc(-c2ccccc2)on1 [3-(5-phenylisoxazol-3-yl)-5-(1-(tetrahydro-2H-pyran-4-yl)-1H-pyrazol-4-yl)pyridin-2-amine]
< 0.5 | < 0.5 | < 0.5 | Nc1ncc(-c2cnn(C3CCNCC3)c2)cc1-c1ncc(-c2ccccc2)o1 [3-(5-phenyloxazol-2-yl)-5-(1-(piperidin-4-yl)-1H-pyrazol-4-yl)pyridin-2-amine]
< 0.5 | < 0.5 | > 10 | Nc1ncc(-c2cnn(C3CCOCC3)c2)cc1-c1ncc(-c2ccccc2)o1 [3-(5-phenyloxazol-2-yl)-5-(1-(tetrahydro-2H-pyran-4-yl)-1H-pyrazol-4-yl)pyridin-2-amine]
< 0.5 | < 0.5 | < 0.5 | CCN1CCC(n2cc(-c3cnc(N)c(-c4nc(-c5ccccc5)no4)c3)cn2)CC1 [5-(1-(1-ethylpiperidin-4-yl)-1H-pyrazol-4-yl)-3-(3-phenyl-1,2,4-oxadiazol-5-yl)pyridin-2-amine]
< 0.5 | < 0.5 | < 0.5 | CCN1CCC(n2cc(-c3cnc(N)c(-c4ncc(-c5ccccc5)o4)c3)cn2)CC1 [5-(1-(1-ethylpiperidin-4-yl)-1H-pyrazol-4-yl)-3-(5-phenyloxazol-2-yl)pyridin-2-amine]
< 0.5 | < 0.5 | < 0.5 | CN1CCC(n2cc(-c3cnc(N)c(-c4nc(-c5ccccc5)no4)c3)cn2)CC1 [5-(1-(1-methylpiperidin-4-yl)-1H-pyrazol-4-yl)-3-(3-phenyl-1,2,4-oxadiazol-5-yl)pyridin-2-amine]
< 0.5 | < 0.5 | 0.5 to 1 | CN1CCC(n2cc(-c3cnc(N)c(-c4noc(-c5ccccc5)n4)c3)cn2)CC1 [5-(1-(1-methylpiperidin-4-yl)-1H-pyrazol-4-yl)-3-(5-phenyl-1,2,4-oxadiazol-3-yl)pyridin-2-amine]
< 0.5 | < 0.5 | < 0.5 | CN1CCC(n2cc(-c3cnc(N)c(-c4cc(-c5ccccc5)on4)c3)cn2)CC1 [5-(1-(1-methylpiperidin-4-yl)-1H-pyrazol-4-yl)-3-(5-phenylisoxazol-3-yl)pyridin-2-amine]
< 0.5 | < 0.5 | < 0.5 | Nc1ncc(-c2cnn(C3CCNCC3)c2)cc1-c1ncc(-c2cccnc2)o1 [5-(1-(piperidin-4-yl)-1H-pyrazol-4-yl)-3-(5-(pyridin-3-yl)oxazol-2-yl)pyridin-2-amine]
1 to 10 | 1 to 10 | 1 to 10 | Nc1ncc(-c2cnn(C3CCCCC3)c2)cc1-c1ccc(-c2ccccc2)o1 [5-(1-cyclohexyl-1H-pyrazol-4-yl)-3-(5-phenylfuran-2-yl)pyridin-2-amine]
1 to 10 | 1 to 10 | 1 to 10 | Nc1ncc(-c2cnn(C3CCCCC3)c2)cc1-c1cc(-c2ccccc2)on1 [5-(1-cyclohexyl-1H-pyrazol-4-yl)-3-(5-phenylisoxazol-3-yl)pyridin-2-amine]
1 to 10 | 1 to 10 | > 10 | Nc1ncc(-c2cnn(C3CCCCC3)c2)cc1-c1ncc(-c2ccccc2)o1 [5-(1-cyclohexyl-1H-pyrazol-4-yl)-3-(5-phenyloxazol-2-yl)pyridin-2-amine]
1 to 10 | 1 to 10 | 1 to 10 | Nc1ncc(-c2cnn(C3CCN(C(=O)C4CC4)CC3)c2)cc1-c1nc(-c2ccccc2)no1 [(4-(4-(6-amino-5-(3-phenyl-1,2,4-oxadiazol-5-yl)pyridin-3-yl)-1H-pyrazol-1-yl)piperidin-1-yl)(cyclopropyl)methanone]

Continued, compound first:

SMILES | IC50 [1] [µM] | IC50 (human Axl (473-end)) [µM] | IC50 (human Mer (578-872)) [µM]
Nc1ncc(-c2cnn(C3CCNCC3)c2)cc1-c1cc(-c2ccccc2)on1 [3-(5-phenylisoxazol-3-yl)-5-(1-(piperidin-4-yl)-1H-pyrazol-4-yl)pyridin-2-amine] | < 0.5 | < 0.5 | < 0.5
Nc1ncc(-c2cnn(C3CCNCC3)c2)cc1-c1nnc(-c2nc(C(F)(F)F)cs2)o1 [5-(1-(piperidin-4-yl)-1H-pyrazol-4-yl)-3-(5-(4-(trifluoromethyl)thiazol-2-yl)-1,3,4-oxadiazol-2-yl)pyridin-2-amine] | < 0.5 | < 0.5 | < 0.5
Nc1ncc(-c2cnn(C3CCNCC3)c2)cc1-c1nnc(-c2cnccn2)o1 [5-(1-(piperidin-4-yl)-1H-pyrazol-4-yl)-3-(5-(pyrazin-2-yl)-1,3,4-oxadiazol-2-yl)pyridin-2-amine] | < 0.5 | < 0.5 | 0.5 to 1
Nc1ncc(-c2cnn(C3CCNCC3)c2)cc1-c1nnc(-c2ccccn2)o1 [5-(1-(piperidin-4-yl)-1H-pyrazol-4-yl)-3-(5-(pyridin-2-yl)-1,3,4-oxadiazol-2-yl)pyridin-2-amine] | < 0.5 | < 0.5 | < 0.5
Nc1ncc(-c2cnn(C3CCNCC3)c2)cc1-c1nnc(-c2cccnc2)o1 [5-(1-(piperidin-4-yl)-1H-pyrazol-4-yl)-3-(5-(pyridin-3-yl)-1,3,4-oxadiazol-2-yl)pyridin-2-amine] | < 0.5 | < 0.5 | < 0.5
Nc1ncc(-c2cnn(C3CCNCC3)c2)cc1-c1nnc(-c2nccs2)o1 [5-(1-(piperidin-4-yl)-1H-pyrazol-4-yl)-3-(5-(thiazol-2-yl)-1,3,4-oxadiazol-2-yl)pyridin-2-amine] | < 0.5 | < 0.5 | < 0.5
Nc1ncc(-c2cnn(C3CCCCC3)c2)cc1-c1nc(-c2c(Cl)cccc2Cl)no1 [5-(1-cyclohexyl-1H-pyrazol-4-yl)-3-(3-(2,6-dichlorophenyl)-1,2,4-oxadiazol-5-yl)pyridin-2-amine] | < 0.5 | 1 to 10 | 1 to 10
Nc1ncc(-c2cnn(C3CCCCC3)c2)cc1-c1nc(-c2ccccc2)no1 [5-(1-cyclohexyl-1H-pyrazol-4-yl)-3-(3-phenyl-1,2,4-oxadiazol-5-yl)pyridin-2-amine] | 1 to 10 | 1 to 10 | > 10
Nc1ncc(-c2cnn(C3CCCCC3)c2)cc1-c1nnc(-c2c(Cl)cccc2Cl)o1 [5-(1-cyclohexyl-1H-pyrazol-4-yl)-3-(5-(2,6-dichlorophenyl)-1,3,4-oxadiazol-2-yl)pyridin-2-amine] | > 10 | > 10 | > 10
Nc1ncc(-c2cnn(C3CCCCC3)c2)cc1-c1noc(-c2ccccc2)n1 [5-(1-cyclohexyl-1H-pyrazol-4-yl)-3-(5-phenyl-1,2,4-oxadiazol-3-yl)pyridin-2-amine] | > 10 | > 10 | > 10
Nc1ncc(-c2cnn(C3CCCCC3)c2)cc1-c1nnc(-c2ccccc2)o1 [5-(1-cyclohexyl-1H-pyrazol-4-yl)-3-(5-phenyl-1,3,4-oxadiazol-2-yl)pyridin-2-amine] | 1 to 10 | 1 to 10 | > 10
Nc1ncc(-c2cnn(C3CCN(C(=O)c4ccccc4)CC3)c2)cc1-c1nc(-c2ccccc2)no1 [(4-(4-(6-amino-5-(3-phenyl-1,2,4-oxadiazol-5-yl)pyridin-3-yl)-1H-pyrazol-1-yl)piperidin-1-yl)(phenyl)methanone] | 1 to 10 | 1 to 10 | 1 to 10
Nc1ncc(-c2cnn(C3CCN(C(=O)C4CC4)CC3)c2)cc1-c1nnc(-c2c(Cl)cccc2Cl)o1 [(4-(4-(6-amino-5-(5-(2,6-dichlorophenyl)-1,3,4-oxadiazol-2-yl)pyridin-3-yl)-1H-pyrazol-1-yl)piperidin-1-yl)(cyclopropyl)methanone] | < 0.5 | < 0.5 | 1 to 10
